In article PMC12216609, “Inhibitors of eIF1A-ribosome interaction unveil uORF-dependent regulation of translation initiation and antitumor and antiviral effects” (The EMBO Journal, 2025):
Where “and” joins values, the source holds several entries; their conditions need not be identical. Identical values can stand only once. Like-named read-outs stand apart in the source and are kept apart here.

How the values were obtained:
RPS10 = target: T1, RPS10 (Homo sapiens, UniProt P46783); format: binding
T1 construct: made in house; host or cells: E. coli BL-21

eIF1A-RPS10 interaction = target: T2, eIF1A-RPS10 interaction (Homo sapiens, UniProt P46783+P47813); assay: Split-Renilla luciferase eIF1A-RPS10 interaction screen, dose-response; format: biochemical; details: summary table; read-out: IC50 concentration (µM), IC50 screen
T2 construct: made in house; host or cells: E. coli BL21 (PRSFduet); unpurified lysate supernatant
T2 sequence (P47813 whole entry, one chain of several): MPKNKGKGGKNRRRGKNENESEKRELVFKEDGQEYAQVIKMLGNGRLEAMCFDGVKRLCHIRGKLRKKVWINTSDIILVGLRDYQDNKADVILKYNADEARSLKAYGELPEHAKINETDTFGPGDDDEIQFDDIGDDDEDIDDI
Experimental: While knockdown (KD) studies of eIF1A provided valuable insights into its role in mammalian cell translation (Sehrawat et al, [2019]), this approach presents several limitations. First, it fails to elucidate the functional significance of the opposing functions of eIF1A N- and C-terminal tails with respect to scanning and start codon fidelity. Second, the extended duration required for achieving efficient knockdown, 48–72 h, impairs our ability to differentiate between direct and indirect effects. To overcome these constraints, we set out to develop small-molecule inhibitors targeting eIF1A. Guided by structural and biochemical studies showing eIF1A binding to the small ribosomal subunit at the A-site and interacting directly with RPS10 through its N-terminal tail (Haimov et al, [2017]; Passmore et al, [2007]; Sehrawat et al, [2019]), our approach focused on disrupting the interaction between eIF1A and RPS10. […] The interaction between eIF1A and RPS10 brings the two parts together, leading to the reconstitution of the enzymatic activity (Haimov et al, [2017]). In this system, the spatial arrangement of the two RL parts is critical for the enzymatic activity, making it sensitive not only to direct interference with the interacting proteins but also to changes in the conformation of the fused proteins. In the eIF1A-RPS10 split-RL pair, the C-terminus of eIF1A is fused to N-RL (Fig. 1A), in order to maintain the NTT accessible to RPS10 binding. This pair was cloned and expressed in bacteria as recombinant proteins and used to screen a library of ~50,000 small molecules from diverse sources (Ashkenazi et al, [2017]).
eIF1A-ΔC-Renilla and RPS10-ΔN-Renilla were transformed into BL21 E. coli by heat shock transformation. A bacterial starter of 5 ml LB was incubated overnight at 37 °C and transferred into 1 L LB for incubation at 37 °C until OD ~ 0.5–0.7. Next, protein expression was induced with 0.5 mM IPTG, and bacterial cells were incubated overnight at 16 °C. Bacterial cell pellet was collected after centrifugation (3000 RPM, 15 min), resuspended in 20 ml TKE buffer (Tris 10 mM, KCl 100 mM, EDTA 0.1 mM), sonicated (bath sonicator, 24 cycles of 30 s) and centrifuged again (15000 RPM, 30 min). Supernatants were collected, analyzed for RL activity, and then used for high throughput drug screen (HTS) at the Weizmann G-INCPM HTS unit as described (Ashkenazi et al, [2017]). In addition to the standard controls of this protocol, the two parts of the split RL, without eIF1A or RPS10, were tested as controls. Selected compounds were purchased from Sigma-Aldrich and Enamine. Compound powders were resuspended in DMSO for a final concentration of 10 mM and stored at −20 °C.

[1] = tested on: CUG/GUG vs AUG start codon luciferase reporters in HEK293T cells; assay: Near-cognate AUG starting codon fidelity reporter assay (GUG, CUG vs AUG); format: cell-based; details: for CUG vs AUG (%): CUG start codon reporter relative to AUG reporter (AUG = 100); for CUG vs AUG (%) / GUG vs AUG (%): compound at 20uM (summary head), single-experiment calculation; for GUG vs AUG (%): GUG start codon reporter relative to AUG reporter (AUG = 100); for average CUG and GUG / average CUG and GUG relative to DMSO / CUG Average / GUG Average: NUG experiment; for CUG Average: CUG vs AUG reporter; for GUG Average: GUG vs AUG reporter; for NUG (Final data, Fig. 1E): average CUG and GUG relative to DMSO, 20 µM overnight; for GUG vs AUG data (%) / GUG vs AUG (%) Average: compound at 20uM; for GUG vs AUG data (%): individual repeat; for GUG vs AUG (%) Average: summary average of repeats, DMSO control average […]
Experimental: We next considered the importance of eIF1A in controlling start codon fidelity in yeast and mammalian cells (Martin-Marcos et al, [2011]; Martin-Marcos et al, [2017]; Sehrawat et al, [2019]; She et al, [2023]) and tested how inhibition of eIF1A by 1Ais affects the initiation from near-cognate AUG. The effect of 1Ais was analyzed using firefly luciferase reporters bearing either AUG (control), CUG, or GUG as the exclusive translation initiation sites. Co-transfected GFP reporter served as an internal control for transfection efficiency.
For the near-cognate AUG Starting codon fidelity reporter assay, HEK293T cells were transfected with 100 ng of the previously described luciferase reporter constructs driven either by AUG, CUG, and GUG (Tang et al, [2017]) together with GFP expressing plasmid (20 ng) as normalizing control. Luciferase and GFP levels were determined as described above.
Appendix Figure S1: (A) HEK293T cells were transfected with Luciferase reporter genes with either CUG or AUG as their exclusive starting codon. 6 hours after transfection, cells were exposed to 1Ais, and the luminescence from all constructs was measured after overnight incubation. Bars represent the ratio between luminescence from the AUG starting codon and CUG after normalization with co-transfected GFP; Error bars represent SEM, * denotes p<0.05 (T-test comparing to DMSO control), n=≥4 independent biological replicates.

eIF1A = target: T3, eIF1A (Homo sapiens, UniProt P47813); format: binding; details: for fluorescence ratio, eIF1A: background-corrected, relative to DMSO or lowest 1Ai concentration, replicate columns
T3 construct: His-bdSUMO (cleaved yes); made in house; host or cells: E. coli BL-21
T3 sequence (P47813 whole entry): as the sequence (P47813 whole entry, one chain of several) above

[2] = read-out: IC50 (line under RPS10 binding data)
[3] = summary table, fluorescence binding assay, read-out: IC50 concentration (µM), RPS10
[4] = summary table, fluorescence binding assay, read-out: IC50 concentration (µM), WT eIF1A
[5] = summary table, fluorescence binding assay

SMILES	RPS10 fluorescence ratio to control (RPS10; 1Ai conc. 0.25 uM)	RPS10 fluorescence ratio to control (RPS10; 1Ai conc. 0.5 uM)	RPS10 fluorescence ratio to control (RPS10; 1Ai conc. 1 uM)	RPS10 fluorescence ratio to control (RPS10; 1Ai conc. 2 uM)	RPS10 fluorescence ratio to control (RPS10; 1Ai conc. 4 uM)	RPS10 fluorescence ratio to control (RPS10; 1Ai conc. 8 uM)	RPS10 fluorescence ratio to control (RPS10; 1Ai conc. 16 uM)	RPS10 fluorescence ratio to control (RPS10; 1Ai conc. 32 uM)	RPS10 fluorescence ratio to control (RPS10; 1Ai conc. 64 uM)	RPS10 fluorescence ratio to control (RPS10; 1Ai conc. 256 uM)	IC50 (eIF1A-RPS10 interaction)	average CUG and GUG [1]	average CUG and GUG relative to DMSO [1]	CUG Average [1]	GUG Average [1]	NUG (Final data, Fig. 1E) [1]	GUG vs AUG data (%) [1]	GUG vs AUG (%) Average [1]	fluorescence ratio, eIF1A (eIF1A; 1Ai conc. 0.25 uM)	fluorescence ratio, eIF1A (eIF1A; 1Ai conc. 0.5 uM)	further results
Cc1cc(-n2c(C)cc(-c3csc(N)n3)c2C)no1 [1Ai-6464]	0.9293	0.9332	0.9643	0.9061	0.8558	0.7733	0.6954	0.5591	0.4769	0.3869	13 µM	3.765	0.8347	6.092	1.4368	0.835	1.40% and 1.10% and 1.81% and 1.45%	1.44%	0.9721 and 0.9575	1.01 and 0.9713	IC50 (RPS10; [2]): 6.4 µM; IC50 (RPS10; read-out: RPS10 IC50): 6.4 µM; IC50 (RPS10; [3]): 6.4 µM; CUG vs AUG (%) [1]: 6.312%; GUG vs AUG (%) [1]: 1.439%; fluorescence ratio, eIF1A (eIF1A; 1Ai conc. 1 uM): 0.9857; fluorescence ratio, eIF1A (eIF1A; 1Ai conc. 2 uM): 0.9155; fluorescence ratio, eIF1A (eIF1A; 1Ai conc. 4 uM): 0.9236 and 0.8848; fluorescence ratio, eIF1A (eIF1A; 1Ai conc. 8 uM): 0.5527 and 0.8172; fluorescence ratio, eIF1A (eIF1A; 1Ai conc. 16 uM): 0.5305 and 0.7368; fluorescence ratio, eIF1A (eIF1A; 1Ai conc. 32 uM): 0.4838 and 0.639; fluorescence ratio, eIF1A (eIF1A; 1Ai conc. 64 uM): 0.4268 and 0.4798; fluorescence ratio, eIF1A (eIF1A; 1Ai conc. 256 uM): 0.2524 and 0.2775; IC50 (eIF1A; eIF1A, from the titration data, read-out: IC50 (eIF1A titration block)): 21.2 µM; IC50 (eIF1A; [4]): 21.2 µM
C=CCNC(=O)CN1CCN(Cc2nc3cc(-c4ccc(Cl)cc4)sc3c(=O)[nH]2)CC1 [1Ai-1524]	1.173	1.067	0.76	0.8336	0.607	0.7612	0.4083	0.3654	0.4197	0.05131	30 µM	7.9532	1.763	12.0643	3.842	1.763	4.35% and 2.64% and 2.99% and 5.39%	3.84%	1.099 and 1	1.123 and 1.057	IC50 (RPS10; [2]): 16.8 µM; IC50 (RPS10; read-out: RPS10 IC50): 16.8 µM; IC50 (RPS10; [3]): 16.8 µM; CUG vs AUG (%) [1]: 6.424%; GUG vs AUG (%) [1]: 0.742%; fluorescence ratio, eIF1A (eIF1A; 1Ai conc. 1 uM): 1.12 and 1.013; fluorescence ratio, eIF1A (eIF1A; 1Ai conc. 2 uM): 1.158 and 0.9647; fluorescence ratio, eIF1A (eIF1A; 1Ai conc. 4 uM): 1.086 and 0.8847; fluorescence ratio, eIF1A (eIF1A; 1Ai conc. 8 uM): 0.9254 and 0.8076; fluorescence ratio, eIF1A (eIF1A; 1Ai conc. 16 uM): 0.9496 and 0.7767; fluorescence ratio, eIF1A (eIF1A; 1Ai conc. 32 uM): 1.01 and 0.848; fluorescence ratio, eIF1A (eIF1A; 1Ai conc. 64 uM): 0.9931 and 0.7702; fluorescence ratio, eIF1A (eIF1A; 1Ai conc. 256 uM): 1.036 and 1.149; WT eIF1A IC50 (eIF1A; fluorescence binding): No binding; IC50 concentration (µM), WT eIF1A (eIF1A; [5]): No binding
CCOc1cc(C(=O)Nc2ccc(Cl)c(-c3nc4ccccc4[nH]3)c2)cc(OCC)c1OCC [1Ai-5677]	1.185	1.207	1.132	1.142	1.154	1.116	1.16	1.234	1.307	1.29	15 µM	7.022	1.557	10.2182	3.825	1.557	5.33% and 3.23% and 3.12% and 3.62%	3.82%	0.8378 and 0.9597	0.7937 and 0.9656	RPS10 IC50 (RPS10; fluorescence binding): No binding; IC50 concentration (µM), RPS10 (RPS10; [5]): No binding; fluorescence ratio, eIF1A (eIF1A; 1Ai conc. 1 uM): 0.9644 and 1.01; fluorescence ratio, eIF1A (eIF1A; 1Ai conc. 2 uM): 1.084 and 0.9877; fluorescence ratio, eIF1A (eIF1A; 1Ai conc. 4 uM): 1.028 and 1.008; fluorescence ratio, eIF1A (eIF1A; 1Ai conc. 8 uM): 0.9744 and 0.9518; fluorescence ratio, eIF1A (eIF1A; 1Ai conc. 16 uM): 1.11 and 0.9262; fluorescence ratio, eIF1A (eIF1A; 1Ai conc. 32 uM): 1.565 and 1.017; fluorescence ratio, eIF1A (eIF1A; 1Ai conc. 64 uM): 1.663 and 1.113; fluorescence ratio, eIF1A (eIF1A; 1Ai conc. 256 uM): 1.623 and 1.122; IC50 (eIF1A; [4]): 24.8 µM
